Entries after “also recorded” stand apart in the source; their conditions may differ.
Experiments:
Assay type in all cases: cell-based, human
OPM-2 cells = assay: CC-93269 mediated cytotoxicity assay with chronically stimulated T-cells, OPM-2 target cells (IncuCyte); details: anti-CD3/CD28 7 days with 100 nM pomalidomide, 10 nM iberdomide or 1 nM CC-92480; CC-93269 47 pM; E:T 1:2
Protocol: (§1) Cell growth kinetics of A) NCI-H929 and B) OPM-2 cells in CC-93269 (47 pM) cytotoxicity assays on the IncuCyte® S3 Live-Cell Analysis System. Healthy donor T-cells were used as effector cells with or without chronic stimulation with anti-CD3/CD28 (7 days) in the presence of DMSO or CM agents (100 nM Pomalidomide, 10 nM CC-220 or 1 nM CC-92480). T-cells and NCI-H929 cells were co-cultured at E:T ratios of 1:4 (NCI-H929) or 1:2 (OPM-2). […] In contrast, prior exposure to CM agents prevented functional TBMS cell exhaustion and CC-93269 activity was similar or better to those observed with freshly thawed T-cells. Values shown represent the mean ± standard deviation of AUC values of 2-3 replicates from the same experiment.
(§2) To evaluate the effects of Cereblon modulating (CM) agents on T-cell function after chronic stimulation (i.e. mimicking T cell exhaustion), CD3+ enriched healthy donor T-cells were stimulated with anti-CD3/CD28 in the presence of DMSO (control), 100 nM pomalidomide, 10 nM iberdomide (CC-220) or 1 nM Compound 1 (CC-92480) for 7 days. Prolonged and repetitive anti-CD3/CD28 stimulation of T-cells results in functional T-cell exhaustion in vitro.
(§3) The chronically stimulated T-cells were then used in CC-93269 mediated cytotoxicity assays with NCI-H929 or OPM-2 multiple myeloma (MM) target cells. The T-cells were washed to remove compounds, and mixed with fluorescently labelled MM cell lines (NCI-H929, OPM-2) at optimized effector-to-target (E:T) ratios (1:2 or 1:4) in the presence of fixed concentrations of CC-93269 (47 pM). Freshly thawed T-cells (i.e. non-exhausted T-cells) from the same donor were used as control effector cells. In this experimental cytotoxicity assay setup, the number of target cells was continuously monitored using the IncuCyte® S3 Live-Cell Analysis System for a minimum of 10 days. Cell culture supernatants were taken from wells from subsequent CC-93269 mediated cytotoxicity assays at 3 days after mixing with MM target cells. CD3+ T cells from 2 or 3 independent healthy donors were tested for each MM cell line.

IL1-beta = assay: CC-93269-induced IL1-beta secretion, co-culture of PBMCs and K562-BCMA cells (MSD)
Protocol: Co-cultures of PBMCs, target K562-BCMA cells and CC-93269 were prepared as for FIG. 9. At 6-, 24- and 48-hours post-incubation, the cell culture media was collected and levels of IL1-beta in the supernatant were assessed using an MSD assay (FIG. 13A). […] The circles indicate independent donors and the bars indicate median values; not all donors are shown because a data cut-off for the bottom ~10% of IL1-beta concentrations, below 100 pg/ml, was used to eliminate small changes that could skew the result and to increase confidence in results.
Fresh PBMCs were isolated from the blood (buffy coat) of healthy human volunteers by Ficoll based cell separation. The percentage of CD3+ T-cells (total) in the PBMCs was quantified by flow cytometry. The isolated PBMCs were seeded in 12 well plates at a concentration of 1.5×10^6 cells/ml and treated with 1 nM Compound 1 (CC-92480) or control DMSO overnight (~17 hours). After overnight incubation, target K562-BCMA cells were added to the wells at a ratio of 5:1, T-cells to target cells, followed by incubation with CC-93269 at various concentrations. […]
At 6, 24 and 48 hours post-incubation, the cell culture media was collected from all samples, spun down at 300 g for 5 minutes to remove cells and the supernatant was subjected to cytokine analysis to quantify secreted levels of IL1-beta using an MSD assay.

IL-2 = assay: CC-93269-induced IL-2 secretion, co-culture of PBMCs and K562-BCMA cells (MSD); details: Compound 1 pre-treatment; 24 hours
Protocol: (§4) Co-cultures of PBMCs, target K562-BCMA cells and CC-93269 were prepared as for FIG. 9. At 6-, 24- and 48-hours post-incubation, the cell culture media was collected and levels of TNF-alpha (FIG. 12A) and IL-2 (FIG. 12B) in the supernatant were assessed using an MSD assay. ULOQ = Upper limit of quantification.
(§5) Fresh PBMCs were isolated from the blood (buffy coat) of healthy human volunteers by Ficoll based cell separation. The percentage of CD3+ T-cells (total) in the PBMCs was quantified by flow cytometry. The isolated PBMCs were seeded in 12-well plates at a concentration of 1.5×10^6 cells/ml and treated with 1 nM Compound 1 (CC-92480), 1000 nM lenalidomide, 100 nM pomalidomide, 10 nM iberdomide, or control DMSO overnight (~17 hours).
(§6) After overnight incubation, target K562-BCMA cells (overexpress surface BCMA at a very high level) or control K562-MCB cells (no BCMA expression) were added to the wells at a ratio of 5:1, T-cells to target cells. K562-BCMA and K562-MCB are an isogenic pair that are derived from a chronic myelogenous leukemia (CML,) cell line. CC-93269 was added to the co-culture at various concentrations and incubated. CC-93269 is an anti-BCMA anti-CD3 bispecific T cell-engaging antibody and is also referred to herein as 42-TCBcv.

TNF-alpha = assay: CC-93269-induced TNF-alpha secretion, co-culture of PBMCs and K562-BCMA cells (MSD); details: Compound 1 pre-treatment; 24 hours
Protocol: as §4, §5, §6

NCI-H929 cells = assay: CC-93269 mediated cytotoxicity assay with chronically stimulated T-cells, NCI-H929 target cells (IncuCyte); details: anti-CD3/CD28 7 days with 100 nM pomalidomide, 10 nM iberdomide or 1 nM CC-92480; CC-93269 47 pM; E:T 1:4
Protocol: as §1, §2, §3

MDC = assay: LPS-stimulated PBMC cytokine production, multiplex cytokine analysis: MDC; details: Homo sapiens, PBMC, PBMC 2×10^6 cells/ml, compound 1 hour, then 1 ng/ml LPS 18 hours
Protocol: Peripheral blood mononuclear cells (PBMCs) were isolated from the blood of healthy human donors by Ficoll cell separation. […] Supernatant samples were subjected to multiplex cytokine analysis (Luminex IS100 instrument) to quantify secreted levels of IL-6, IL-8, IL1-beta (IL-1β), GM-CSF, MDC, MIP-1alpha (MIP-1α), MIP-1beta (MIP-1β) and TNF-alpha (TNF-α) (see e.g. FIGS. 7A-C). IC50 (half maximal inhibitory concentration) values were calculated to measure the potency of each IMiD compound in inhibiting LPS-stimulated secretion of each cytokine (see Table 25).

| SMILES | cytolytic function of chronically stimulated T-cells in CC-93269-directed killing of OPM-2 cells (OPM-2 cells) | secretion of IL1-beta associated with CC-93269 activity, PBMCs + K562-BCMA (IL1-beta; 1 nM Compound 1 pre-treatment overnight) | median reduction in IL1-beta levels relative to DMSO control (IL1-beta; Compound 1 pre-treatment, 10 ng/ml CC-93269, 24 hours, PBMCs from 15 healthy donors) | CC-93269-induced IL-2 secretion from PBMCs with K562 target cells (IL-2) | CC-93269-induced TNF-alpha secretion from PBMCs with K562 target cells (TNF-alpha) | cytolytic function of chronically stimulated T-cells in CC-93269-directed killing of NCI-H929 cells (NCI-H929 cells) | IC50 (MDC) |
| --- | --- | --- | --- | --- | --- | --- | --- |
| N#Cc1ccc(N2CCN(Cc3ccc(COc4cccc5c4CN(C4CCC(=O)NC4=O)C5=O)cc3)CC2)c(F)c1 (stereo not drawn) [Compound 1, 4-(4-(4-(((2-(2,6-dioxopiperidin-3-yl)-1-oxoisoindolin-4-yl)oxy)methyl)benzyl)piperazin-l-yl)-3-fluorobenzonitrile] | beneficial effects on the cytolytic function of T-cells | diminished/attenuated; also recorded: suppressed | ten-fold | potentiates | potentiates | beneficial effects on the cytolytic function of T-cells | – |
| O=C1CC[C@H](N2Cc3c(OCc4ccc(CN5CCOCC5)cc4)cccc3C2=O)C(=O)N1 [Iberdomide, (S)-3-(4-((4-(morpholinomethyl)benzyl)oxy)-1-oxoisoindolin-2-yl)piperidine-2,6-dione] | beneficial effects on the cytolytic function of T-cells | – | – | – | – | beneficial effects on the cytolytic function of T-cells | 0.0021 µM |
| Nc1cccc2c1CN(C1CCC(=O)NC1=O)C2=O (stereo not shown) [Lenalidomide, 3-(4-amino-1-oxo-2,3-dihydro-1H-isoindol-2-yl) piperidine-2,6-dione] | – | – | – | – | – | – | 0.19 µM |
| Nc1cccc2c1C(=O)N(C1CCC(=O)NC1=O)C2=O (stereo not shown) [Pomalidomide, 4-amino-2-(2,6-dioxopiperidine-3-yl)isoindoline-1,3-dione] | beneficial effects on the cytolytic function of T-cells | – | – | – | – | beneficial effects on the cytolytic function of T-cells | 0.031 µM |

— patent US20230172923A1, “METHODS OF TREATING CYTOKINE-RELATED ADVERSE EVENTS” (BRISTOL-MYERS SQUIBB COMPANY, priority 2020, published 2023)
